The record followed here is patent publication EP2016954A1, “Antibodies against 4-(methylnitrosamino)-1-(3-pyridyl)-1-butanone and metabolites thereof” (Muller, Claude P., priority 2007, dated 2009).

The test system of assay [1] is P7H3. The assay is described as follows: Competition ELISA with mAb P7H3. The following applies: for IC50: competitor inhibiting binding of P7H3; for inhibition of P7H3 binding: competition ELISA, result in words. Type of assay: binding, mouse. The protocol:
(§1) In all competition experiments, optimal antigen coating conditions and serum dilutions were determined by direct ELISA. 384-well plates were coated with the minimal amount of antigen required for maximal signal. Sera or mAb supernatants were diluted to obtain 70% binding and a signal of 1.0 to 1.5 O.D. at 0% competition (highest signal). The competitors (NNK and its metabolites (NNAL, NNK-N-ox, NNAL-N-ox, keto acid (1-(3-pyridyl)-1-butanone-4-carboxylic acid), PBCA (1-(3-pyridyl)-1-butanol-4-carboxylic acid), PB (1-(3-pyridyl)-1-butanediol) and HPB (4-hydroxy-1-(3-pyridyl)-1-butanone)), from Toronto Research Chemicals Inc., Canada and Acros Organics, Geel, Belgium) were resuspended in 100% dimethylsulfoxide and stock solutions of […] were frozen at -80°C. Competitors were mixed 1:1 with sera or mAb supernatants to final concentrations of 0 to 512 µM for mAbs or 0 to 1024 µM for serum. Zero (highest signal) and 100% competition (background signal) were determined using no or NNK-C2 as competitor. The difference between these two values corresponds to the dynamic range of the assay. For each competitor concentration, the 50% of inhibitory concentration, IC50 was calculated. Experiments were independently repeated three times and data were analyzed used SigmaStat software. Net OD was calculated by subtraction of the relevant background as described in each figure.
Background: An ELISA detects its analyte on a solid surface through an enzyme-linked reagent.

Assay [2] deals with P9D5. In words: Competition ELISA with mAb P9D5 on immobilized [NNK-C2]-OVA. Type of assay: binding, mouse. Particulars: for IC50: competitor inhibiting binding of P9D5 to [NNK-C2]-OVA; for IC50 compared with the one of NNK: P9D5, result in words; for inhibition of P9D5 binding: competition ELISA, result in words. The protocol: as §1
In assay [3] the test system is P9D5 and P7H3. In words: Competition ELISA, results stated jointly for both mAbs. It is filed as binding, mouse. The following applies: for IC50: range over P9D5 and P7H3; for binding of the antibodies: N-oxidation of the pyridyl ring, result in words. As to the method: as §1
For assay [4], the system named is anti-[NNK-C2]-DT sera. In words: Competition ELISA with mouse sera on coated [NNK-C2]-OVA. Type of assay: binding, BALB/c mice. Particulars: for IC50: competitor inhibiting binding of serum antibodies to coated [NNK-C2]-OVA; for specific reactivity of mouse sera: competition ELISA. As to the method: Specific antibodies were monitored after each injection of [NNK-C2]-DT. […] NNK-specific antibodies were monitored by competition ELISA by adding increasing concentrations of NNK as competitors (0-256µM) (Figure 1) to measure their capacity to inhibit the binding of serum antibodies to coated [NNK-C2]-OVA.
as §1

For assay [5], the system named is NCI-H82 cells. In words: NNK-induced proliferation of NCI-H82 cells (ATP bioluminescence). The following applies: NNK 25 nM, 24h. It is filed as cell-based, human. As to the method:
NCI-H82 cells were obtained from European Collection of Cell Cultures and maintained in RPMI 1640 with 2 mM L-glutamine (Biowhittaker, Verviers, BE) with the above supplements ("NCI-H82 medium"). Every 2 or 3 days cell medium was renewed. Cells were subcultured once a week. All cultures were mycoplasma-free.
For proliferation experiments, NCI-H82 cells were seeded at a concentration of about 8 x 10^3 cells/well in 200 µl of NCI-H82 medium on collagen type I coated 96-well plates (Greiner Bio-one, Wemmel, BE) and incubated at 37°C and 10% CO2. Proliferation assays were performed at 10% CO2 since CO2 seems to act as a potent messenger molecule for SCLC cells, enhancing the susceptibility of this cancer cell to a host of autocrine and paracrine growth-stimulating signals. After 18h, medium was replaced by fresh NCI-H82 medium containing only 0.15% heat-inactivated fetal bovine serum ("low serum medium") 6h prior NNK treatment. Stock solutions of NNK were prepared in dimethyl sulfoxide. […] Cell proliferation was assessed 24h after treatment using the ViaLightTM HS kit according to the manufacturer's instructions (Cambrex Bioscience, Verviers, BE). Bioluminescence of ATP present in metabolically active cells, was measured on a GENios Plus fluorescence plate reader (Tecan, Mechelen, BE). […]

The structures appear in SMILES notation. Values joined by “and” are separate entries in the source; they are usually repeats but may differ in a detail not shown here. Identical values can stand only once.

Usually IC50 stands for the point on the concentration scale where inhibition reaches its midpoint. Lower therefore signals higher potency. Turning to `Cc1cccnc1` [3-picoline], the 50% inhibitory concentration (IC50) stood at 320 µM in assay [1] and 400 µM in assay [2].

Take `CCOC(=O)c1cccnc1` [ENAT, ethylnicotinate]: the half-maximal inhibitory concentration (IC50) is 80 µM in assay [1], 49 µM in assay [2] and 49 to 80 µM in assay [3].

Turning to `O=C(CCCO)c1cccnc1` [HPB, 4-hydroxy-1-(3-pyridyl)-1-butanone], in assay [1], the “inhibition of P7H3 binding” value was “moderately inhibited”. For the same compound, the IC50 in assay [4] was 80 µM; in assay [2], 50 µM.

Regarding `O=C(O)c1ccc[n+]([O-])c1` [NIA-N-Ox, nicotinic acid-N-oxide], the “binding of the antibodies” value in assay [3] is recorded as “totally obliterates binding”.

`CN(CCCC(O)c1cccnc1)N=O` (centres unmarked) [NNAL, 4-(methylnitrosamino)-1-(3-pyridyl)-1-butanol]: the half-inhibitory concentration (IC50) in assay [4] is 80 µM; in assay [2], 20 µM; in assay [3] it was 29 to 93 µM.

On to `CN(CCCC(O)c1ccc[n+]([O-])c1)N=O` (centres unmarked) [NNAL-N-Ox, 4-(methylnitrosamino)-1-(3-pyridyl-N-oxide)-1-butanol], for which the “specific reactivity of mouse sera” value in assay [4] was “essentially no specific reactivity was detected”. Also, the “binding of the antibodies” value in assay [3] is on record as “totally obliterates binding”.

Turning to `CN(CCCC(=O)c1cccnc1)N=O` [NNK, 4-(methylnitrosamino)-1-(3-pyridyl)-1-butanone], the half-maximal inhibitory concentration (IC50) in assay [1] was 160 µM; in assay [4] it was 26 µM; in assay [2], 63 µM and 80 µM; in assay [3], 80 to 160 µM. Further, the “increase of cell number in comparison to unstimulated control cells” value in assay [5] was in the range of 2 to 3 fold.

As for `NCCN(CCCC(=O)c1cccnc1)N=O` [NNK-C2, 4-[2-amino-ethyl(nitrosamino)]-1-pyridine-3-yl-butane-1-one], the IC50 in assay [2] is 3.7 µM; in assay [3] it was 4.4 to 12 µM.

Take `CN(CCCC(=O)c1ccc[n+]([O-])c1)N=O` [NNK-N-Ox, 4-(methylnitrosamino)-1-(3-pyridyl-N-oxide)-1-butanone]: in assay [4], the “specific reactivity of mouse sera” value is on record as “essentially no specific reactivity was detected”. In addition, the “binding of the antibodies” value in assay [3] is reported as “totally obliterates binding”.

Take `OCCCC(O)c1cccnc1` (centres unmarked) [PB, 1-(3-pyridyl)-1-butanediol]: the “inhibition of P7H3 binding” value in assay [1] is on record as “moderately inhibited”. The half-maximal inhibitory concentration (IC50) in assay [4] came to 230 µM; in assay [2], 72 µM.

Regarding `O=C(O)CCC(O)c1cccnc1` (centres unmarked) [PBCA, 1-(3-pyridyl)-1-butanol-4 carboxylic acid], the “inhibition of P7H3 binding” value in assay [1] was “moderately inhibited”. Moreover, in assay [2], the “IC50 compared with the one of NNK” value was “significant increase of the IC50” and the “inhibition of P9D5 binding” value is listed as “moderate inhibition”.

Consider `O=C(O)CCC(=O)c1cccnc1` [keto acid, 1-(3-pyridyl)-1-butanone-4 carboxylic acid], for which, in assay [1], the “inhibition of P7H3 binding” value is given as “moderately inhibited”. Also, in assay [2], the “IC50 compared with the one of NNK” value was “significant increase of the IC50” and the “inhibition of P9D5 binding” value was “moderate inhibition”.
